Structures can show the parent of a compound that is named as a salt. Where two headings read alike, the source gives them in different places.

Among the data in US20240239788A1, “SMALL MOLECULE INHIBITORS OF KRAS G12D MUTANT” (Merck Sharp & Dohme LLC, priority 2021, published 2024) are IC50 values, retold here.

The subject of experiment [1] is AsPC-1 cells containing homozygous KRAS-G12D activating mutation. Nature of the experiment: Cellular phospho-ERK assay with 10% FBS (Examples 107a-256). The experiment is classed as cell-based. On the procedure: 5% CO2 for 2 hours. […] Assay plates were read on a EnVision Multimode Plate Reader (PerkinElmer) and the ratio of p-Erk vs total Erk in each well was used as the final readout.

Experiment [2] addresses KRAS protein containing G12D mutation (Homo sapiens (Human), UniProt P01116, G12D). Put plainly: SOS-catalyzed nucleotide exchange assay (GNE), TR-FRET. The following applies: biotinylated KRAS G12D, SOS and GTP, 60-minute incubation. It is filed as biochemical. On the procedure:
Compounds are added to this complex and then after a 60-minute incubation time the mixture is treated with SOS and unlabeled GTP. Small molecule inhibitors stabilize the Bodipy-GDP complex whereas the untreated protein rapidly exchanges Bodipy-GDP for unlabeled GTP resulting in reduced TR-FRET signal.
This solution is referred to as biotinylated KRAS G12D stock solution.

[3] abbreviates: read-out: IC50 (nM) pERK (cell with FBS 10%), AsPC-1 cells, 10% fetal bovine serum, 2 hours, ratio of p-Erk vs total Erk.
The mark [4] stands for this setting: Homo sapiens, ASPC1, 2 h, read-out: IC50 (nM) pERK (cell with FBS 10%), AsPC-1 cells, 10% fetal bovine serum, 2 hours, ratio of p-Erk vs total Erk.

Chain of KRAS protein containing G12D mutation (P01116 other isoform, or with tags, fused parts or gaps G12D (already in the parent)): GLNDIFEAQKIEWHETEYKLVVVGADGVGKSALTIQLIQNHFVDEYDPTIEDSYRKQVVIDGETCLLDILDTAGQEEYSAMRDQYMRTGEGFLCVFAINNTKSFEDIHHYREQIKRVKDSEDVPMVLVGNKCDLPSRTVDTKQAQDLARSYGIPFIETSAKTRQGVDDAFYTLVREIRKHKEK

With `C#Cc1cccc2cc(O)c(Cl)c(-c3c(F)cc4c(N5CC6CC[C@@](C)(C5)N6)nc(OC[C@@]56CCCN5C[C@H](F)C6)nc4c3F)c12` (single isomer, unassigned) [Ex. 143a], the IC50 in experiment [1] (setting [3]) stood at 53.5 nM; in experiment [2], 0.86 nM.
In the case of `C#Cc1cccc2cccc(-c3c(F)cc4c(N5CC6(C)CCC(C)(C5)N6)nc(OC[C@@]56CCCN5C[C@H](F)C6)nc4c3F)c12` (single isomer, unassigned) [Ex. 190b, TFA], the IC50 in experiment [1] (read-out: IC50 (nM) pERK (cell with FBS 10%), AsPC-1 cells, 10% fetal bovine serum, 2 hours, ratio of p-Erk vs total Erk, TFA) is 5830 nM; in experiment [2] it was 72 nM.
As for `Oc1c(F)cc(Cl)c(Cl)c1-c1c(Cl)cc2c(N3C[C@H]4CC[C@@H](C3)N4)nc(OC[C@@]34CCCN3C[C@H](F)C4)nc2c1F` [Ex. 199, 2-(4-((1R,5S)-3,8-diazabicyclo[3.2.1]-octan-3-yl)-6-chloro-8-fluoro-2-(((2R,7aS)-2-fluorotetrahydro-1H-pyrrolizin-7a(5H)-yl)-methoxy)quinazolin-7-yl)-3,4-dichloro-6-fluorophenol], the IC50 came to 30000 nM in experiment [1] (setting [4]) and 2620 nM in experiment [2].
Take `C[C@]12CC[C@H](CN(c3nc(OC[C@@]45CCCN4C[C@H](F)C5)nc4c(F)c(-c5nc(N)nc6cccc(Cl)c56)c(F)cc34)C1)N2` [Ex. 188, 5-chloro-6′,8′-difluoro-2′-(((2R,7aS)-2-fluoro-tetrahydro-1H-pyrrol-izin-7a(5H)-yl)meth-oxy)-4'-((1S,5R)-1-methyl-3,8-diaza-bicyclo[3.2.1]octan-3-yl)-[4,7′-biquinazolin]-2-amine]: the IC50 in experiment [1] (setting [4]) stood at 30000 nM; in experiment [2], 3400 nM.
Consider `CC(Oc1nc(N2C[C@H]3CC[C@@](C)(C2)N3)c2cc(F)c(-c3cc(O)cc4cccc(Cl)c34)c(F)c2n1)[C@]1(C)CCCN1` (mixture of isomers) [Ex. 164, 5-chloro-4-(6,8-difluoro-4-((1S,5R)-1-methyl-3,8-diaza-bicyclo-[3.2.1]octan-3-yl)-2-(1-((S)-2-methyl-pyrrolidin-2-yl)ethoxy)-quinazolin-7-yl)naph-thalen-2-ol, TFA], for which the IC50 in experiment [1] (setting [4]) worked out at 29300 nM; in experiment [2], 562 nM.
`Cc1cc2[nH]nc(C#N)c2c(-c2c(F)cc3c(N4C[C@H]5CC[C@@H](C4)N5)nc(OC[C@@]45CCCN4C[C@H](F)C5)nc3c2F)c1OC(F)(F)Cl` [compound 255, 4-(4-((1R,5S)-3,8-diazabicyclo[3.2.1]octan-3-yl)-6,8-difluoro-2-(((2R,7aS)-2-fluorotetrahydro-1H-pyrrolizin-7a(5H)-yl)methoxy)quinazolin-7-yl)-5-(chlorodifluoromethoxy)-6-methyl-1H-indazole-3-carbonitrile]: the IC50 in experiment [1] (setting [4]) came out at 58.9 nM; in experiment [2], 0.79 nM.
On to `Cc1cc(N)nc(-c2c(F)cc3c(N4C[C@H]5CC[C@@H](C4)N5)nc(OC[C@@]45CCCN4C[C@H](F)C5)nc3c2F)c1C1CC1` [Ex. 237, 6-(4-((1R,5S)-3,8-diazabicyclo[3.2.1]octan-3-yl)-6,8-difluoro-2-(((2R,7aS)-2-fluorotetrahydro-1H-pyrrolizin-7a(5H)-yl)methoxy)quinazolin-7-yl)-5-cyclopropyl-4-methylpyridin-2-amine], for which the IC50 came out at 508 nM in experiment [1] (setting [4]) and 57.6 nM in experiment [2].
Turning to `C[C@]12CC[C@H](CN(c3nc(OCC45CCCN4CCC(F)(F)C5)nc4c(F)c(-c5cc(O)cc6cccc(Cl)c56)c(F)cc34)C1)N2` (single isomer, unassigned) [Example 116b], the IC50 in experiment [1] (setting [4]) was found to be 14000 nM; in experiment [2], 473 nM.
On to `Nc1cc2cccc(Cl)c2c(-c2c(F)cc3c(N4C[C@H]5CC[C@@H](C4)N5)nc(OC[C@@]45CCCN4C[C@H](F)C5)nc3c2F)n1` [Ex. 132, 1-(4-((1R,5S)-3,8-diazabicyclo[3.2.1]octan-3-yl)-6,8-difluoro-2-(((2R,7aS)-2-fluorotetrahydro-1H-pyrrolizin-7a(5H)-yl)methoxy)quinazolin-7-yl)-8-chloroisoquinolin-3-amine], for which the IC50 stood at 5580 nM in experiment [1] (setting [4]) and 347 nM in experiment [2].
`C[C@]12CCC(CN(c3nc(OC[C@@]45CCCN4C[C@H](F)C5)nc4c(F)c(-c5cccc6cccc(Cl)c56)c(F)cc34)C1)N2` (mixture of isomers) [Ex. 212, 7-(8-chloronaphthalen-1-yl)-6,8-difluoro-2-(((2R, 7aS)-2-fluorotetrahydro-1H-pyrrolizin-7a(5H)-yl)-methoxy)-4-((1S,5R)-1-methyl-3,8-diazabicyclo-[3.2.1]octan-3-yl)quinazoline, 2TFA]: the results for the IC50 in experiment [1] (setting [4]) and in experiment [2] were 9060 nM and 180 nM, respectively.
`Cc1cc2[nH]nc(C#N)c2c(-c2c(F)cc3c(N4C[C@H]5CC[C@@H](C4)N5)nc(OC[C@@]45CCCN4C[C@H](F)C5)nc3c2F)c1C(F)(F)F` (single isomer, unassigned) [227b]: the IC50 was found to be 32.6 nM in experiment [1] (setting [3]) and 1.02 nM in experiment [2].
The corresponding values for `Cc1nc2[nH]nc(C)c2c(-c2c(F)cc3c(N4C[C@H]5CC[C@@H](C4)N5)nc(OC[C@@]45CCCN4C[C@H](F)C5)nc3c2F)c1C(F)(F)F` (single isomer, unassigned) [250b] are 63.1 nM and 1.54 nM.
On to `C[C@]12CC[C@H](CN(c3nc(OC[C@H]4CCNC4)nc4c(F)c(-c5cc(O)cc6ccccc56)c(Cl)cc34)C1)N2` [Example 119, 4-(6-chloro-8-fluoro-4-((1S,5R)-1-methyl-3,8-diazabicyclo[3.2.1]octan-3-yl)-2-(((S)-pyrrolidin-3-yl)methoxy)quinazolin-7-yl)naphthalen-2-ol, TFA], for which the IC50 in experiment [1] (setting [4]) was 30000 nM; in experiment [2] it was 1440 nM.
On to `CN(C)CC1(COc2nc(N3C[C@H]4CC[C@@](C)(C3)N4)c3cc(F)c(-c4cc(O)cc5ccccc45)c(F)c3n2)CC1` [Example 115, 4-(2-((1-((dimethylamino)methyl)cyclopropyl)methoxy)-6,8-difluoro-4-((1S,5R)-1-methyl-3,8-diazabicyclo [3.2.1]octan-3-yl)quinazolin-7-yl) naphthalen-2-ol], for which the values for the IC50 in experiment [1] (setting [4]) and in experiment [2] were 1470 nM and 10.5 nM, respectively.
Regarding `C[C@]12CC[C@H](CN(c3nc(OC[C@@]45CCCN4C[C@H](F)C5)nc4c(F)c(-c5c(F)cc(F)c6oc(N)nc56)c(Cl)cc34)C1)N2` (single isomer, unassigned) [Ex. 170a], the IC50 in experiment [1] (setting [3]) stood at 1380 nM; in experiment [2] it was 4.72 nM.
The corresponding values for `C#Cc1cccc2cc(N)nc(-c3c(F)cc4c(N5CC6CCC(C5)N6)nc(OC[C@@]56CCCN5C[C@H](F)C6)nc4c3F)c12` (single isomer, unassigned) [Ex. 148a] are 235 nM and 13.6 nM.
`CN1CCC[C@H]1COc1nc(N2C[C@H]3CC[C@@](C)(C2)N3)c2cc(F)c(-c3cc(O)cc4cccc(Cl)c34)c(F)c2n1` [Ex. 185, 5-chloro-4-(6,8-difluoro-4-((1S,5R)-1-methyl-3,8-diaza-bicyclo-[3.2.1]octan-3-yl)-2-(((S)-1-methyl-pyrrolidin-2-yl)meth-oxy)quinazolin-7-yl)-naphthalen-2-ol]: the figures for the IC50 in experiment [1] (setting [4]) and in experiment [2] were 7040 nM and 732 nM, respectively.
Turning to `CN(C[C@@]1(COc2nc(N3C[C@H]4CC[C@@](C)(C3)N4)c3cc(F)c(-c4cc(O)cc5cccc(Cl)c45)c(F)c3n2)CC1(F)F)[C@@H]1CCC[C@H]1O` [Ex. 217a, 5-chloro-4-(2-(((R)-2,2-difluoro-1-((((1R,2R)-2-hydroxycyclopentyl)-(methyl)amino)methyl)cyclopropyl)methoxy)-6,8-difluoro-4-((1S,5R)-1-methyl-3,8-diazabicyclo[3.2.1]octan-3-yl)quinazolin-7-yl)naphthalen-2-ol], the values for the IC50 in experiment [1] (setting [4]) and in experiment [2] were 2640 nM and 12.7 nM, respectively.
As to `C[C@]12CCC(CN(c3nc(OCC45CCCN4CC(C(F)F)C5)nc4c(F)c(-c5cc(O)cc6cccc(Cl)c56)c(F)cc34)C1)N2` (single isomer, unassigned) [Ex. 173-1b], the results for the IC50 in experiment [1] (setting [3]) and in experiment [2] were 2890 nM and 22.1 nM, respectively.
With `C#Cc1cccc2scc(-c3c(F)cc4c(N5CC6CC[C@@](C)(C5)N6)nc(OCC5(CN6CCOCC6)CC5)nc4c3F)c12` (single isomer, unassigned) [Ex. 147a], the IC50 in experiment [1] (setting [4]) amounted to 16600 nM; in experiment [2], 400 nM.
The corresponding values for `C#Cc1cccc2nc(N)nc(-c3c(F)cc4c(N5C[C@H]6CC[C@@H](C5)N6)nc(OC[C@@]56CCCN5C[C@H](F)C6)nc4c3F)c12` [compound 235, 4′-((1R,5S)-3,8-diazabicyclo[3.2.1]octan-3-yl)-5-ethynyl-6′,8′-difluoro-2′-(((2R,7aS)-2-fluorotetrahydro-1H-pyrrolizin-7a(5H)-yl)methoxy)-[4,7′-biquinazolin]-2-amine] are 910 nM and 91.7 nM.
For the compound `Cc1cc(N)nc(-c2c(Cl)cc3c(N4CC5CC(O)C(C4)N5)nc(OC[C@@]45CCCN4C[C@H](F)C5)nc3c2F)c1C(F)(F)F` (single isomer, unassigned) [249b], the IC50 is 360 nM in experiment [1] (setting [4]) and 1.52 nM in experiment [2].
Turning to `C[C@]12CC[C@H](CN(c3nc(OC[C@@H]4CC[C@]5(CO)CCCN45)nc4c(F)c(-c5cc(O)cc6cccc(Cl)c56)c(F)cc34)C1)N2` [Ex. 243b, 5-chloro-4-(6,8-difluoro-2-(((3S,7aS)-7a-(hydroxymethyl)hexahydro-1H-pyrrolizin-3-yl)methoxy)-4-((1S,5R)-1-methyl-3,8-diazabicyclo[3.2.1]octan-3-yl)quinazolin-7-yl)naphthalen-2-ol], the IC50 stood at 20500 nM in experiment [1] (setting [4]) and 23.1 nM in experiment [2].
